Values joined by “and” are separate entries in the source; they are usually repeats but may differ in a detail not shown here. Equal values may be shown once.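 Dose response: 5 concentrations. Exposure: 48 h. Format: 96-well plates. Endpoint: linear interpolation; highest concentration if not reached. GI50 = concentration required for 50% inhibition of growth. The concentration for full growth arrest is given as TGI.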
Legend:
Assay in all cases: DTP human tumour cell line panel, 48 h
NCI-H23 lung = test system: NCI-H23 lung
SK-OV-3 ovarian = test system: SK-OV-3 ovarian
NCI/ADR-RES ovarian = test system: NCI/ADR-RES ovarian
NCI-H226 lung = test system: NCI-H226 lung
BT-549 breast = test system: BT-549 breast
UO-31 renal = test system: UO-31 renal
LOX IMVI melanoma = test system: LOX IMVI melanoma
SF-268 CNS = test system: SF-268 CNS
NCI-H522 lung = test system: NCI-H522 lung
SR leukemia = test system: SR leukemia

SMILES | TGI (NCI-H23 lung) | TGI (SK-OV-3 ovarian) | TGI (NCI/ADR-RES ovarian) | TGI (NCI-H226 lung) | TGI (BT-549 breast) | TGI (UO-31 renal) | TGI (LOX IMVI melanoma) | TGI (SF-268 CNS) | TGI (NCI-H522 lung) | TGI (SR leukemia) | GI50 (NCI-H23 lung) | GI50 (SK-OV-3 ovarian) | GI50 (NCI/ADR-RES ovarian) | GI50 (NCI-H226 lung) | GI50 (BT-549 breast) | GI50 (UO-31 renal) | GI50 (LOX IMVI melanoma) | GI50 (SF-268 CNS) | GI50 (NCI-H522 lung) | GI50 (SR leukemia)
Nc1nc(N)c(CCCCc2ccccc2)c(N)n1 | > 100 µM | > 100 µM | > 100 µM | > 100 µM | > 100 µM | > 100 µM | > 100 µM | > 100 µM | > 100 µM | > 100 µM | – | – | – | – | – | – | – | – | – | –
Oc1cc(-n2cccn2)c(O)cc1-n1cccn1 | 68.4 µM | > 100 µM | > 100 µM | > 89 µM | 35.7 µM | 54.2 µM | 42.4 µM | > 82.5 µM | 26.8 µM | 73.3 µM | – | – | – | – | – | – | – | – | – | –
COc1cccc(Oc2ccccc2NC(=O)CNC(=O)c2cccc3ccccc23)c1 | > 25 µM | 12.3 µM | 5.69 µM | > 25 µM | 10.2 µM | > 25 µM | > 25 µM | > 25 µM | 2.02 µM | > 25 µM | 0.735 µM | 0.494 µM | 0.238 µM | 2.49 µM | 0.298 µM | 1.8 µM | 0.267 µM | 0.547 µM | 0.176 µM | 0.115 µM
COc1cc2c(cc1F)C(c1ccccc1Cl)=Nc1c(n[nH]c1C)N2 | 21 µM | 33.1 µM | 29.5 µM | 16.3 µM | 20.5 µM | 6.25 µM | 13.1 µM | 11.7 µM | 20.9 µM | 32.8 µM | 3.79 µM | 1.59 µM | 0.465 µM | 0.532 µM | 2.7 µM | 0.84 µM | 0.94 µM | 1.14 µM | 0.415 µM | 0.417 µM
COc1cc(C(=O)Nc2cc(O)c(CC=C(C)C)c(O)c2)cc2c1O[C@]1(C)CC[C@@H](O)C(C)(C)[C@H]1C2 | 35.9 µM | 17.3 µM | > 100 µM | 61.3 µM | 12.8 µM | 4.13 µM | 10.3 µM | 39.3 µM | 14.6 µM | > 100 µM | 5.42 µM | 0.729 µM | 29.8 µM | 3.04 µM | 0.153 µM | 0.506 µM | 0.281 µM | 1.79 µM | 1.92 µM | 0.0624 µM
Oc1c(-c2cc(C(F)(F)F)[nH]n2)cc(Cl)c(OCc2ccc(Cl)cc2)c1-c1ccc(Cl)c(C(F)(F)F)c1 | 4.06 µM | 4.66 µM | 5.82 µM | 2.68 µM | 2.16 µM | 2.21 µM | 2.9 µM | 4.14 µM | 1.72 µM | 2.99 µM | 0.265 µM | 1.54 µM | 0.221 µM | 0.917 µM | 0.624 µM | 0.818 µM | 0.967 µM | 0.18 µM | 0.167 µM | 0.256 µM
O=C1c2c(Br)sc(Br)c2[C@@H](NC(=O)C(F)(F)F)C1Br (stereo not given in full) | 7.14 µM | 32.8 µM | 11 µM | 15.1 µM | 10.1 µM | 12.5 µM | 3.24 µM | 15.2 µM | 5.07 µM | 5.3 µM | – | – | – | – | – | – | – | – | – | –
C1CSCCSCCCSCCSCCCSCCSCCCSCCSC1 | > 100 µM | > 100 µM | > 100 µM | > 100 µM | > 100 µM | > 100 µM | > 100 µM | > 100 µM | > 100 µM | > 100 µM | – | – | – | – | – | – | – | – | – | –
COc1ccc(/C=C(/C)[N+](=O)[O-])cc1OC | 4.24 µM and 4.6 µM | 27.4 µM and 30.4 µM | 9.77 µM and 13.9 µM | 9.63 µM and 13.4 µM | 8.87 µM and 3.92 µM | 3.26 µM and 3.23 µM | 3.21 µM and 3.55 µM | 7.13 µM and 13.2 µM | 1.14 µM and 2.26 µM | 7 µM | 1.9 µM and 1.98 µM | 14.3 µM and 16.7 µM | 2.97 µM and 3.25 µM | 5.03 µM and 3.71 µM | 3.74 µM and 2.07 µM | 1.74 µM and 1.61 µM | 1.6 µM and 1.15 µM | 2.82 µM and 3.61 µM | 0.456 µM and 0.48 µM | 1.26 µM
